From patent publication US12233161B1, “Lipids and lipid nanoparticle formulations” (LONGUIDE BIOPHARMA CORPORATION, priority 2024, dated 2025)

Experiments:
[1] = Particle size and PDI of nucleic acid lipid nanoparticle preparations by dynamic light scattering; assay type: physicochemical
In short: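 Size read by DLS after diluting the LNP preparation (approx. 0.04 mg/mL mRNA) in ultrapure water with gentle pipette mixing. The same sample, recovered and diluted further with water, was then used for zeta potential measurement.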

[2] = Potential characterization of nucleic acid lipid nanoparticle preparations; assay type: physicochemical
Procedure: 20 μL of the nucleic acid lipid nanoparticle solution (containing about 0.04 mg/mL mRNA) was taken and added with 780 μL of ultrapure water, used a pipette tip to gently blow and mix, and the potential of the nanopreparation was detected by Malvern particle sizer (model ZEN3700).
27.5 μL nucleic acid lipid nanoparticle solution (containing about 0.04 mg/mL mRNA) was taken and added with 200 μL ultrapure water. A pipette tip was used to gently blow the sample and mix well. The particle size of the nanopreparation was detected by Malvern Dynamic Light Scattering Instrument (Malvern Instruments Ltd., ZEN3700, UK). After the detection, the sample was recovered to an EP tube, and 600 μL of ultrapure water was added, gently blown with a pipette tip, and the potential of the nanopreparation was measured by a Malvern particle size meter.

mice = assay: In vivo delivery of FLuc-mRNA lipid nanoparticles in mice, in vivo imaging (IVIS); details: for in vivo delivery efficiency as compared to the benchmark compound SM102 / tissue-targeting specificity (lung vs spleen depending on molar percentage of compound): certain formulations, Table 2
In short: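 Mice (n=3) received about 75 μL FLuc-mRNA LNP per mouse intramuscularly (rectus femoris), intravenously (tail vein), intraperitoneally or subcutaneously (back). After injection, D-luciferin (200 μL, 15 mg/mL) was given i.p. 10-15 min before IVIS imaging.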

[3] = DMG-PEG2000:DSPC:Chol:Lipid 1.00:4.00:60.00:35.00, N/P 18, mRNA LNP
[4] = DMG-PEG2000:DSPC:Chol:Lipid 1.71:12.98:45.31:40.00, N/P 30, mRNA LNP
[5] = DMG-PEG2000:DSPC:Chol:Lipid 2.50:16.00:16.50:65.00, N/P 18, mRNA LNP
[6] = mRNA LNP, 1.00:4.00:30.00:65.00, N/P 30
[7] = DMG-PEG2000:DSPC:Chol:Lipid 1.00:4.00:60.00:35.00, N/P 18, IV, liver
[8] = DMG-PEG2000:DSPC:Chol:Lipid 1.00:4.00:60.00:35.00, N/P 18, IV, lung
[9] = DMG-PEG2000:DSPC:Chol:Lipid 1.00:4.00:60.00:35.00, N/P 18, IV, spleen
[10] = DMG-PEG2000:DSPC:Chol:Lipid 2.50:16.00:16.50:65.00, N/P 18, IV, liver
[11] = DMG-PEG2000:DSPC:Chol:Lipid 2.50:16.00:16.50:65.00, N/P 18, IV, lung
[12] = DMG-PEG2000:DSPC:Chol:Lipid 2.50:16.00:16.50:65.00, N/P 18, IV, spleen
[13] = mRNA LNP, 1.00:4.00:30.00:65.00, N/P 30, IV, liver
[14] = mRNA LNP, 1.00:4.00:30.00:65.00, N/P 30, IV, lung
[15] = mRNA LNP, 1.00:4.00:30.00:65.00, N/P 30, IV, spleen
[16] = DMG-PEG2000:DSPC:Chol:Lipid 0.50:4.00:47.00:48.50, N/P 36, mRNA LNP
[17] = DMG-PEG2000:DSPC:Chol:Lipid 1.00:4.00:25.00:70.00, N/P 36, mRNA LNP
[18] = DMG-PEG2000:DSPC:Chol:Lipid 1.00:16.00:48.00:35.00, N/P 18, mRNA LNP
[19] = DMG-PEG2000:DSPC:Chol:Lipid 1.40:11.15:38.95:48.50, N/P 18, mRNA LNP
[20] = DMG-PEG2000:DSPC:Chol:compound 1.00:10.00:33.00:56.00, N/P 48
[21] = DMG-PEG2000:DSPC:Chol:Lipid 0.50:4.00:47.00:48.50, N/P 36, IV, liver
[22] = DMG-PEG2000:DSPC:Chol:Lipid 0.50:4.00:47.00:48.50, N/P 36, IV, lung
[23] = DMG-PEG2000:DSPC:Chol:Lipid 0.50:4.00:47.00:48.50, N/P 36, IV, spleen
[24] = DMG-PEG2000:DSPC:Chol:Lipid 1.00:4.00:25.00:70.00, N/P 36, IV, liver
[25] = DMG-PEG2000:DSPC:Chol:Lipid 1.00:4.00:25.00:70.00, N/P 36, IV, lung
[26] = DMG-PEG2000:DSPC:Chol:Lipid 1.00:4.00:25.00:70.00, N/P 36, IV, spleen
[27] = DMG-PEG2000:DSPC:Chol:Lipid 1.00:16.00:48.00:35.00, N/P 18, IV, liver
[28] = DMG-PEG2000:DSPC:Chol:Lipid 1.00:16.00:48.00:35.00, N/P 18, IV, lung
[29] = DMG-PEG2000:DSPC:Chol:Lipid 1.00:16.00:48.00:35.00, N/P 18, IV, spleen

CCCCCCCCCCCCNC(=O)C(O)CN(CCN(C)CCN(CC(O)C(=O)NCCCCCCCCCCCC)CC(O)C(=O)NCCCCCCCCCCCC)CC(O)C(=O)NCCCCCCCCCCCC (stereo not drawn) [Compound L0264]
PDI [1, 3]: 0.08 ± 0.02 | Particle size [1, 3]: 78.48 ± 0.63 nm | PDI [1, 4]: 0.18 ± 0.00 | Particle size [1, 4]: 85.86 ± 1.26 nm | PDI [1, 5]: 0.15 ± 0.01 | Particle size [1, 5]: 92.82 ± 0.65 nm | PDI [1, 6]: 0.14 | Particle size (nm) [1, 6]: 90.94 nm | Zeta potential (mV) [2, 6]: 12.33 mV | IVIS (mice; DMG-PEG2000:DSPC:Chol:Lipid 1.00:4.00:60.00:35.00, N/P 18, IV, body): 9.71 × 10^7 | % of organ targeting (mice; [7]): 13.54% | IVIS (mice; [7]): 4.70 × 10^6 | % of organ targeting (mice; [8]): 34.29% | IVIS (mice; [8]): 1.19 × 10^7 | % of organ targeting (mice; [9]): 52.16% | IVIS (mice; [9]): 1.81 × 10^7 | IVIS (mice; DMG-PEG2000:DSPC:Chol:Lipid 1.71:12.98:45.31:40.00, N/P 30, IM, whole body scan): 3.34 × 10^5 | IVIS (mice; DMG-PEG2000:DSPC:Chol:Lipid 2.50:16.00:16.50:65.00, N/P 18, IV, body): 4.76 × 10^7 | % of organ targeting (mice; [10]): 0.90% | IVIS (mice; [10]): 9.86 × 10^5 | % of organ targeting (mice; [11]): 95.82% | IVIS (mice; [11]): 1.05 × 10^8 | % of organ targeting (mice; [12]): 3.28% | IVIS (mice; [12]): 3.59 × 10^6 | in vivo delivery efficiency as compared to the benchmark compound SM102 (mice): superior in vivo delivery efficiency | tissue-targeting specificity (lung vs spleen depending on molar percentage of compound) (mice): strong tissue-targeting specificity | % of organ targeting (mice; [13]): 0.40% | IVIS (mice; [13]): 2.69E+06 | % of organ targeting (mice; [14]): 98.90% | IVIS (mice; [14]): 6.68E+08 | % of organ targeting (mice; [15]): 0.71% | IVIS (mice; [15]): 4.76E+06 | IVIS (mice; mRNA LNP, DMG-PEG2000:DSPC:Chol:lipid 1.00:4.00:30.00:65.00, N/P 30, IV, body): 2.87E+08

CCCCCCCCCCCCNC(=O)C(O)CN(CCCN(CCCN(CC(O)C(=O)NCCCCCCCCCCCC)CC(O)C(=O)NCCCCCCCCCCCC)CC(O)CO)CC(O)C(=O)NCCCCCCCCCCCC (stereo not drawn) [Compound L0273]
PDI [1, 16]: 0.11 ± 0.01 | Particle size [1, 16]: 113.50 ± 0.20 nm | PDI [1, 17]: 0.18 ± 0.01 | Particle size [1, 17]: 167.67 ± 2.20 nm | PDI [1, 18]: 0.15 ± 0.02 | Particle size [1, 18]: 119.23 ± 0.68 nm | PDI [1, 19]: 0.13 ± 0.02 | Particle size [1, 19]: 91.45 ± 0.74 nm | PDI [1, 20]: 0.13 | Particle size (nm) [1, 20]: 125.97 nm | Zeta potential (mV) [2, 20]: 13.60 mV | IVIS (mice; DMG-PEG2000:DSPC:Chol:Lipid 0.50:4.00:47.00:48.50, N/P 36, IV, body): 5.29 × 10^7 | % of organ targeting (mice; [21]): 1.50% | IVIS (mice; [21]): 2.55 × 10^6 | % of organ targeting (mice; [22]): 95.51% | IVIS (mice; [22]): 1.62 × 10^8 | % of organ targeting (mice; [23]): 2.99% | IVIS (mice; [23]): 5.07 × 10^6 | IVIS (mice; DMG-PEG2000:DSPC:Chol:Lipid 1.00:4.00:25.00:70.00, N/P 36, IV, body): 1.65 × 10^8 | % of organ targeting (mice; [24]): 1.40% | IVIS (mice; [24]): 6.91 × 10^6 | % of organ targeting (mice; [25]): 97.42% | IVIS (mice; [25]): 4.82 × 10^8 | % of organ targeting (mice; [26]): 1.19% | IVIS (mice; [26]): 5.88 × 10^6 | IVIS (mice; DMG-PEG2000:DSPC:Chol:Lipid 1.00:16.00:48.00:35.00, N/P 18, IV, body): 3.19 × 10^7 | % of organ targeting (mice; [27]): 14.38% | IVIS (mice; [27]): 3.44 × 10^6 | % of organ targeting (mice; [28]): 9.95% | IVIS (mice; [28]): 2.38 × 10^6 | % of organ targeting (mice; [29]): 75.67% | IVIS (mice; [29]): 1.81 × 10^7 | IVIS (mice; DMG-PEG2000:DSPC:Chol:Lipid 1.40:11.15:38.95:48.50, N/P 18, IM, whole body scan): 2.54 × 10^6 | IVIS (mice; IV, body, DMG-PEG2000:DSPC:Chol:compound 1.00:10.00:33.00:56.00, N/P 48, Fluc-mRNA): 4.36E+08 | % of organ targeting (mice; IV, liver, DMG-PEG2000:DSPC:Chol:compound 1.00:10.00:33.00:56.00, N/P 48): 0.73% | IVIS (mice; IV, liver, DMG-PEG2000:DSPC:Chol:compound 1.00:10.00:33.00:56.00, N/P 48, Fluc-mRNA): 5.72E+06 | % of organ targeting (mice; IV, lung, DMG-PEG2000:DSPC:Chol:compound 1.00:10.00:33.00:56.00, N/P 48): 98.17% | IVIS (mice; IV, lung, DMG-PEG2000:DSPC:Chol:compound 1.00:10.00:33.00:56.00, N/P 48, Fluc-mRNA): 7.69E+08 | % of organ targeting (mice; IV, spleen, DMG-PEG2000:DSPC:Chol:compound 1.00:10.00:33.00:56.00, N/P 48): 1.09% | IVIS (mice; IV, spleen, DMG-PEG2000:DSPC:Chol:compound 1.00:10.00:33.00:56.00, N/P 48, Fluc-mRNA): 8.58E+06 | in vivo delivery efficiency as compared to the benchmark compound SM102 (mice): superior in vivo delivery efficiency | tissue-targeting specificity (lung vs spleen depending on molar percentage of compound) (mice): strong tissue-targeting specificity
